Laboratory results as given in US12358910B2, “Heteroaromatic compounds as Vanin inhibitors” (Boehringer Ingelheim International GmbH, priority 2018, dated 2025).

Columns and labels:
[1] = target: T1, FLAG-tagged Vanin-1 (AA 22-493, T26I) (Homo sapiens, UniProt O95497, T26I); experiment: Vanin-1 enzymatic assay (pantothenic acid formation, RapidFire mass spectrometry); type: biochemical; conditions: 0.1 nM FLAG-tagged Vanin-1, 3 μM D-pantethine, room temperature; geometric mean in case of multiple measurements; read-out: VNN-1 IC50
T1 construct: FLAG-tagged Vanin-1 (AA 22-493, T26I, produced internally); FLAG; made in house
T1 sequence (O95497 22-493 T26I): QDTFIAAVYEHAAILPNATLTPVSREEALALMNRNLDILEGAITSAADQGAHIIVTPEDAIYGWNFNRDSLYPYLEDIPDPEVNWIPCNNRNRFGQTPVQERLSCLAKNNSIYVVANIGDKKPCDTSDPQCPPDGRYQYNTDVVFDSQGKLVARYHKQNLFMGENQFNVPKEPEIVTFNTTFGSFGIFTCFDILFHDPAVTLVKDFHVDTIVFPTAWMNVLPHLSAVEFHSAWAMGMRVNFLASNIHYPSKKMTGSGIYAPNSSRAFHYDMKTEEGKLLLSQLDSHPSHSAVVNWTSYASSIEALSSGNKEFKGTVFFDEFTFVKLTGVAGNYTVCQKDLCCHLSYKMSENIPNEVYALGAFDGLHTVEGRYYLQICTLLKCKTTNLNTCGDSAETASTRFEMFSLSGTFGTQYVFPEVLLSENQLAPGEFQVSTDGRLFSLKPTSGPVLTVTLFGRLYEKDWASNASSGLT
Method: Description of Biological Properties Vanin-1 Enzymatic Assay:
The test compounds are dissolved in 100% DMSO at a concentration of 10 mM and in a first step diluted in DMSO to a concentration of 5 mM, followed by serial dilution steps in 100% DMSO. Dilution factor and number of dilution steps may vary according to needs. Typically 8 different concentrations by 1:5 dilutions are prepared, a further intermediate dilutions of the substances is carried out with assay buffer resulting in 1% final DMSO concentration in the assay.
0.1 nM of FLAG-tagged Vanin-1 (AA 22-493, T26I, produced internally) and test compounds are incubated at room temperature for 20 minutes in assay buffer (1 mM DTT, 0.0025% Brij-35, 50 mM HEPES, pH7.5). D-Pantethine (Sigma, Cat #P2125-5G) in assay buffer is added (final concentration 3 μM) and incubated for additional 30 minutes at room temperature. Total assay volume typically is 40 μl but might be adjusted according to needs. Reaction is stopped by adding equal volume of stop solution as the reaction mixture to reach 100 nM HD-pantothenic acid (as an internal standard) and 1% TFA. Assay plates are centrifuged for 2 minutes and the formation of pantothenic acid is detected by RapidFire Mass Spectrometry (mobile phase A: 0.1% formic acid and 0.01% trifluoroacetic acid in water; mobile phase B: 47.5% acetonitrile, 47.5% methanol, 0.1% formic acid and 0.01% trifluoroacetic acid in water) using a C18, 12 μL cartridge (Agilent Cat #G9205A).
The values given in Table I result from measurements of one or more samples. In case of multiple measurements the geometric mean values are given.

[2] = tested on: Pantetheinase (vanin); experiment: Human Whole Blood assay (vanin activity by pantothenic acid formation); type: cell-based; conditions: pantethine substrate, 5 min reaction at room temperature, geometric mean in case of multiple measurements, read-out: HWB IC50
Method: Human Whole Blood assay: Pantetheinase (vanin) converts panteheine into pantothenic acid and cysteamine. Accordingly, in the described protocol vanin activity is quantified by formation of pantothenic acid after pantetheine supplementation via pantethine. The assay is applicable to identify vanin inhibitors. Compound stocks are dissolved in DMSO at 10 mM. Further dilutions are performed in RPMI 1640 medium (Gibco, #A-10491-01) and final concentrations in the assay are 0.032 nM-500 nM.
Human blood is drawn into a blood bag (1% heparin, 50 I.E./mL). Blood is aliquoted into cavities of 96-deep-well plates at 290 μL and mixed with 10 μL compound solution or vehicle (30 sec at 1400 rpm on a shaker). Equilibration follows at room temperature, 250 rpm and for 30 min. The assay is started by adding 10 μL of substrate solution (2 μM pantethine in 1 mM DTT, 0.0025% Brij-35, 50 mM HEPES, pH7.5) to each well, except for some blank wells which receive […] substrate buffer (1 mM DTT, 0.0025% Brij-35, 50 mM HEPES, pH7.5) only. Samples are thoroughly shaken (30 sec, 1400 rpm) and reaction is allowed to take place at room temperature, 250 rpm and for 5 min. The reaction is stopped by addition of a vanin tool inhibitor in excess (BI-1 total conc. 10 μM). Centrifugation of the plate follows at 4° C., 665 G for 10 min. Then the blood plasma samples (100 μL) are transferred into another 96-deep-well plate and proteins are precipitated (5 min on ice) by adding 100 μL of ice cold precipitation solution (1 μM labelled pantothenic acid (di-β-alanine-13C6,15N2 calcium salt, Sigma, #705837) in acetonitrile).
Afterwards the plate is centrifuged (4° C., 3220 G, 10 min) and supernatants (50 μL) are collected into another 96-deep-well plate and mixed (10 sec, 1400 rpm) with 150 μL ice cold formic acid (0.1%, Carl Roth GmbH+Co.KG, #CP03.1). The formation of pantothenic acid is detected by RapidFire Mass Spectrometry. A TripleQuad 6500+(ABSciex, Germany) is equipped with an LC-1290 system, a RapidFire autosampler (Agilent, Germany) and a C18 cartridge Type C 12 μL (Agilent Cat #G9526-80000). Mobile phase A is consisting of 0.09% formic acid and 0.01% trifluoroacetic acid in water and mobile phase B of 0.09% formic acid and 0.01% trifluoroacetic acid in acetonitrile/methanol/water=47.5/47.5/5.

Structure (SMILES)	IC50 [1]	IC50 [2]
CN(C(=O)C1(C#N)CC1)[C@H]1CCN(C(=O)c2ccc(NCc3cnc4ccccn34)nc2)C1 [Example 1.13]	0.15 nM	3.03 nM
CN(C(=O)C1CC1)[C@H]1CCN(C(=O)c2ccc(NCc3cnc4ccccn34)nc2)C1 [Example 1.16]	0.2 nM	2.78 nM
C[C@H](Nc1ccc(C(=O)N2CC[C@H](N(C)C(=O)C3CCC3)C2)cn1)c1cnc2[nH]ccc2c1 [Example 1.5]	0.11 nM	1.58 nM
CC(=O)N(C)[C@H]1CCN(C(=O)c2ccc(NCc3cnc4ccsc4c3)nc2)C1 [Example 2.4]	0.29 nM	1.39 nM
CN(C(=O)C1(C)CCC1)[C@H]1CCN(C(=O)c2ccc(NCc3cnc4ccccn34)nc2)C1 [Example 1.14]	0.18 nM	2.59 nM
O=C(c1ccc(NCc2cnc3ccccn23)nc1)N1CC[C@H](N2CCOC2=O)C1 [Example 1.1, 3-[(3S)-1-{6-[({Imidazo[1,2-a]pyridin-3-yl}methyl)amino]pyridine-3-carbonyl}pyrrolidin-3-yl]-1,3-oxazolidin-2-one]	0.24 nM	3.49 nM
C[C@H](Nc1ccc(C(=O)N2CC[C@H](N(C)C(=O)C3CC3)C2)cn1)c1cnc2[nH]ccc2c1 [Example 1.2]	0.09 nM	1.94 nM
CC(=O)N(C)[C@H]1CCN(C(=O)c2ccc(NCc3n[nH]c4ccc(Cl)cc34)nc2)C1 [Example 2.1, N-[1(3S)-1-(6-{1[(5-Chloro-1H-indazol-3-yl)methyl]amino}pyridine-3-carbonyl)pyrrolidin-3-yl]-N-methylacetamide]	0.23 nM	5.03 nM
C[C@H](Nc1ccc(C(=O)N2CC[C@H](N(C)C(=O)C3(C#N)CC3)C2)cn1)c1cnc2[nH]ccc2c1 [Example 1.3]	0.1 nM	3.05 nM
CN(C(=O)C1CC(F)(F)C1)[C@H]1CCN(C(=O)c2ccc(NCc3cnc4ccccn34)nc2)C1 [Example 1.12]	0.1 nM	1.48 nM

Results, then the molecule that gave them:

IC50 [1]	IC50 [2]	Structure (SMILES)
0.22 nM	4.86 nM	CC(=O)N(C)[C@H]1CCN(C(=O)c2ccc(N[C@@H](C)c3ccc4nc[nH]c4c3)nc2)C1 [Example 5.36]
0.41 nM	7.21 nM	CC(=O)N(C)[C@H]1CCN(C(=O)c2ccc(NCc3csc4ccccc34)nc2)C1 [Example 3.1, N-[(3S)-1-(6-{1[(1-Benzothiophen-3-yl)methyl]amino}pyridine-3-carbonyl)pyrrolidin-3-yl]-N-methylacetamide]
0.14 nM	4.49 nM	CC(=O)N(C)[C@H]1CCN(C(=O)c2ccc(NCc3ccc4nc[nH]c4c3)nc2)C1 [Example 5.7]
0.75 nM	3.69 nM	CC(=O)N(C)[C@H]1CCN(C(=O)c2ccc(NCc3ncn4ccccc34)nc2)C1 [Example 5.19]
1.23 nM	3.88 nM	CC(=O)N(C)[C@H]1CCN(C(=O)c2ccc(NCc3cccc4ncccc34)nc2)C1 [Example 5.24]
0.62 nM	4.39 nM	CC(=O)N(C)[C@H]1CCN(C(=O)c2ccc(NCc3c[nH]c4ccccc34)nc2)C1 [Example 5.16]
0.54 nM	1.06 nM	CC(=O)N(C)[C@H]1CCN(C(=O)c2ccc(NCc3c(C)ccc4nc(C)[nH]c34)nc2)C1 [Example 5.40]
0.07 nM	1.68 nM	CC(=O)N(C)[C@H]1CCN(C(=O)c2ccc(N[C@@H](C)c3cccc4c3cnn4C)nc2)C1 [Example 5.2]
0.29 nM	26.2 nM	CN(C(=O)C1CC1)[C@H]1CCN(C(=O)c2ccc(NCc3csc4ccccc34)nc2)C1 [Example 5.39]
0.36 nM	1.37 nM	CC(=O)N(C)[C@H]1CCN(C(=O)c2ccc(N[C@@H](C)c3ccc4nn(C)cc4c3)nc2)C1 [Example 5.38]
0.13 nM	2.1 nM	CC(=O)N(C)[C@H]1CCN(C(=O)c2ccc(NCc3cccc4[nH]ccc34)nc2)C1 [Example 5.6]
0.09 nM	11.2 nM	CC(=O)N(C)[C@H]1CCN(C(=O)c2ccc(NCc3cccc4[nH]ncc34)nc2)C1 [Example 5.3]
0.28 nM	1.71 nM	CC(=O)N(C)[C@H]1CCN(C(=O)c2ccc(NCc3ccnc4[nH]ccc34)nc2)C1 [Example 5.13]
0.1 nM	1.63 nM	CN(C(=O)C1CCC1)[C@H]1CCN(C(=O)c2ccc(NCc3cnc4ccccn34)nc2)C1 [Example 4.1, N-[(3S)-1-{6-[({Imidazo[1,2-a]pyridin-3-yl}methyl)amino]pyridine-3-carbonyl}pyrrolidin-3-yl]-N-methylcyclobutanecarboxamide]
0.82 nM	3.35 nM	CC(=O)N(C)[C@H]1CCN(C(=O)c2ccc(NCc3ccc4[nH]ncc4c3)nc2)C1 [Example 5.22]
0.33 nM	7.66 nM	CC(=O)N(C)[C@H]1CCN(C(=O)c2ccc(N[C@@H](C)c3cccc4[nH]ncc34)nc2)C1 [Example 7.1, N-[(3S)-1-(6-{[(1S)-1-(1H-Indazol-4-yl)ethyl]amino}pyridine-3-carbonyl)pyrrolidin-3-yl]-N-methylacetamide]
0.36 nM	1.69 nM	CC(=O)N(C)[C@H]1CCN(C(=O)c2ccc(NCc3n[nH]c4ccccc34)nc2)C1 [Example 5.14]
0.79 nM	3.4 nM	CC(=O)N(C)[C@H]1CCN(C(=O)c2ccc(NCc3noc4c3CCCC4)nc2)C1 [Example 5.21]
0.18 nM	10.3 nM	CC(=O)N(C)[C@H]1CCN(C(=O)c2ccc(N[C@@H](C)c3cnc4[nH]ccc4c3)nc2)C1 [Example 5.9]
0.04 nM	1.17 nM	CC(=O)N(C)[C@H]1CCN(C(=O)c2ccc(NCc3cncc4ccsc34)nc2)C1 [Example 5.1, N-Methyl-N-[(3S)-1-{6-[({thieno[3,2-c]pyridin-7-yl}methyl)amino]pyridine-3-carbonyl}pyrrolidin-3-yl]acetamide]
